# Patent EP3184514A1, “AUTOPHAGY INHIBITORS” (Deutsches Krebsforschungszentrum, priority 2015, dated 2017)
# Legend:
# [1] = biological target: T1, LC3B (Homo sapiens, UniProt Q9GZQ8); test: AlphaScreen interaction displacement assay (GST-LC3B / biotin-LIRtide); format: binding; conditions: Table 1-a; n.e. means no effect; read-out: LC3B inhibition cell free IC50
# T1 construct: made in house; host or cells: E. coli Rosetta (DE3)
# Experimental: The AlphaScreen assay contained 50 mM Tris (pH 7.5), 100 mM NaCl, 0.01% Tween 20, 2 mM DTT, 1 % DMSO and 2-30 nM GST-LC3B and biotin-LIRtide 2-30 nM. The concentrations of GST-LC3B and biotin-LIRtide were experimentally chosen from a cross-titration assay exploring the different combinations of for each batch of protein used and when a new batch of buffer was prepared.
# A gene encoding for human LC3B protein inserted in a pET-GST expression vector was used as a template. Rosetta (DE3) competent cells were transformed by started procedure, plated on an LB agar plate with ampicillin (100 µg/ml) and left overnight at 37 °C. Overnight culture was prepared from a single colony and shaken at 180 rpm at 37 °C. LB medium with ampicillin was inoculated with overnight culture (10 ml per 500 ml of LB) and shaken until the optical density at 600 nm (OD600) reached a value of approximately 0.6. Protein expression was then induced with 400 µM IPTG and further incubated for 4 hours. Bacterial culture was centrifuged for 20 minutes at 6000 rpm at 4 °C. The pellet was then resuspended in lysis buffer (20 mM TRIS-HCl pH 7.5, 10 mM EDTA, 5 mM EGTA, 150 mM NaCl, 0.5 % NP40, 1 % Triton X-100, 1 mM DTT, 2 mg/ml lysozyme, 0.05 U/µl benzonase, 1x protease inhibitor cocktail). Lysate was then stored at -20 °C over night. Sample was thawed in water bath and sonicated on ice (40 % amplitude, 30 seconds pulse/30 seconds pause cycle). Lysate was centrifuged at 10000xg at 4 °C for half an hour. Meanwhile, 500 µl of glutathione sepharose beads was equilibrated with lysis buffer and then added to the supernatant. The mixture was incubated and rotated at room temperature for 2 hours. After binding of the protein to the beads, beads were spun down at 500xg at 4 °C for 5 minutes. Pellet was then washed with cold wash buffer at least four times (20 mM Tris-HCl pH 7.5, 10 mM EDTA, 5 mM EGTA, 150 mM NaCl, 1 mM DTT), dried and stored in 5 % glycerol at 4 °C.
# [2] = system: LC3B; test: NMR titration (1H-15N HSQC, chemical shift perturbations); format: binding; conditions: 10 fold excess of compound, before prolonged incubation
# [3] = system: U2OS cells; test: autophagic flux by confocal microscopy and western blotting; format: cell-based, Human
# Experimental: […]. After harvesting, cells were lysed with radioimmunoprecipitation assay (RIPA) buffer (50 mM Tris-HCl, pH 7.5, 150 mM NaCl, 0.5 % deoxycholate, 1 % Triton X-100, 0.1 % SDS and 1x protease inhibitors) and left on ice for 30 minutes. Cell lysates were clarified by centrifugation at 10000xg for 20 min at 4 °C. Protein concentrations of the supernatants were determined by BCA assay and the absorbance was measured at 562 nm. SDS-PAGE and WB was performed.
# For screening purposes, cells were seeded in 384 well plates and left over night for attachment. […]. For controls, cells were treated with 250 nM torin and/or 100 nM BafA1 for 2 hours.
# Afterwards, medium was removed and 4 % (w/v) paraformaldehyde (PFA) in PBS buffer was added to the cells for 20 minutes, incubated at room temperature. Cells were permeabilized with 0.1 % (v/v) Triton X-100 for 10 min at room temperature and washed with PBS. Cells were blocked with 3 % (w/v) bovine serum albumin (BSA) in PBS for 45 minutes at 37 °C and then incubated with anti-LC3B (PM036, MBL) or anti-p62 (PM045 or M162-3, MBL) primary antibody diluted in 0.3 % BSA (1:2000 or 1:500) for 1.5-2 hours at 37 °C. Cells were washed three times with PBS. Secondary Alexa Fluor 488 - labeled antibodies (A-11008, Invitrogen) were diluted in 0.3 % BSA (1:2500) and incubated on cells for 15 minutes at 37 °C. Cells were washed once with PBS, incubated with DRAQ5 (#4084, Cell Signaling) diluted in PBS (1:5000) for 10 minutes and washed three times with PBS.
# 384 well plates were then analyzed with an automated confocal microscope Opera (PerkinElmer) enabling high throughput high content screening image analysis. […] Signal was detected with a fast gated CCD camera. […]
# The LC3B protein is a ubiquitin-like protein that can be conjugated to phosphatidylethanolamine (PE) in the membrane of the incipient autophagosome. […] Autophagic flux is often inferred on the basis of LC3B-II turnover, measured by western blot (WB) or immunofluorescence (IF) in the presence and absence of lysosomal degradation. […]
smiles,measurement,setting,value
"Brc1ccc(CSC2=NCN(Cc3cccnc3)CN2)cc1 [Compound I-1, 6-((4-bromobenzyl)thio)-3-(pyridin-3-ylmethyl)-1,2,3,4-tetrahydro-1,3,5-triazine]",IC50,[1],6 µM
same,chemical shift perturbations (CSP) of LC3B,[2],does not induce any significant CSPs
same,numbers of LC3B spots and levels of LC3B-II,"[3]; 100 µM compound together with BafA1 100 nM, compared with single treatment",did not increased further
same,amount of LC3B-II protein and LC3B spots,"[3]; 100 µM, 1 hr",increased
